Assay results as given in PubChem BioAssay (NCI).
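48-hour exposure; five concentrations; linearly interpolated endpoints. At the TGI there is no net growth.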

Assays:
Assay in all cases: growth of human tumour cells (NCI), 48 h
[1] = test system: MALME-3M melanoma
[2] = test system: COLO 205 colon
[3] = test system: UACC-257 melanoma
[4] = test system: KM12 colon
[5] = test system: ACHN renal
[6] = test system: SW-620 colon
[7] = test system: SNB-19 CNS
[8] = test system: DMS 114 small cell lung
[9] = test system: SF-295 CNS
[10] = test system: MOLT-4 leukemia
[11] = test system: RXF-631 renal
[12] = test system: SF-268 CNS
[13] = test system: HL-60(TB) leukemia
[14] = test system: 786-0 renal
[15] = test system: OVCAR-8 ovarian
[16] = test system: SN12C renal
[17] = test system: HOP-18 NSCLC
[18] = test system: SNB-75 CNS
[19] = test system: TK-10 renal
[20] = test system: HCT-15 colon
[21] = test system: IGROV1 ovarian
[22] = test system: OVCAR-4 ovarian
[23] = test system: HCC-2998 colon
[24] = test system: CCRF-CEM leukemia
[25] = test system: KM20L2 colon
[26] = test system: DMS 273 small cell lung
[27] = test system: SF-539 CNS
[28] = test system: EKVX NSCLC
[29] = test system: U251 CNS
[30] = test system: NCI-H522 lung
[31] = test system: NCI-H460 lung
[32] = test system: LXFL 529 NSCLC
[33] = test system: SK-MEL-2 melanoma
[34] = test system: M14 melanoma
[35] = test system: CAKI-1 renal
[36] = test system: HOP-62 NSCLC
[37] = test system: DLD-1 colon
[38] = test system: UO-31 renal
[39] = test system: M19-MEL melanoma
[40] = test system: SK-MEL-5 melanoma
[41] = test system: RPMI-8226 leukemia
[42] = test system: RXF 393 renal
[43] = test system: OVCAR-5 ovarian
[44] = test system: K-562 leukemia
[45] = test system: NCI-H226 lung
[46] = test system: XF 498 CNS
[47] = test system: A549 NSCLC
[48] = test system: UACC-62 melanoma
[49] = test system: LOX IMVI melanoma
[50] = test system: SK-OV-3 ovarian
[51] = test system: HT29 colon
[52] = test system: SK-MEL-28 melanoma
[53] = test system: NCI-H23 lung
[54] = test system: OVCAR-3 ovarian
[55] = test system: SNB-78 CNS
[56] = test system: HCT-116 colon
[57] = test system: A498 renal
[58] = test system: SR leukemia
[59] = test system: HOP-92 NSCLC

NC(N)=NNC(=O)CCn1[nH]c(=O)c(Cl)c(Cl)c1=O
TGI [1]: > 100 µM
TGI [2]: > 100 µM
TGI [3]: > 100 µM
TGI [4]: > 100 µM
TGI [5]: > 100 µM
TGI [6]: > 100 µM
TGI [7]: > 100 µM
TGI [8]: > 100 µM
TGI [9]: > 100 µM
TGI [10]: > 100 µM
TGI [11]: > 100 µM
TGI [12]: > 100 µM
TGI [13]: > 100 µM
TGI [14]: > 100 µM
TGI [15]: > 100 µM
TGI [16]: > 100 µM
TGI [17]: > 100 µM
TGI [18]: > 100 µM
TGI [19]: > 100 µM
TGI [20]: > 100 µM
TGI [21]: > 100 µM
TGI [22]: > 100 µM
TGI [23]: > 100 µM
TGI [24]: > 100 µM
TGI [25]: > 100 µM
TGI [26]: > 100 µM
TGI [27]: > 100 µM
TGI [28]: > 100 µM
TGI [29]: > 100 µM
TGI [30]: > 100 µM
TGI [31]: > 100 µM
TGI [32]: > 100 µM
TGI [33]: > 100 µM
TGI [34]: > 100 µM
TGI [35]: > 100 µM
TGI [36]: > 100 µM
TGI [37]: > 100 µM
TGI [38]: > 100 µM
TGI [39]: > 100 µM
TGI [40]: > 100 µM
TGI [41]: > 100 µM
TGI [42]: > 100 µM
TGI [43]: > 100 µM
TGI [44]: > 100 µM
TGI [45]: > 100 µM
TGI [46]: > 100 µM
TGI [47]: > 100 µM
TGI [48]: > 100 µM
TGI [49]: > 100 µM
TGI [50]: > 100 µM
TGI [51]: > 100 µM
TGI [52]: > 100 µM
TGI [53]: > 100 µM
TGI [54]: > 100 µM

COCOCCCCCO[Si](C)(C)C(C)(C)C
TGI [1]: 47.9 µM
TGI [2]: 38.5 µM
TGI [55]: 48.3 µM
TGI [3]: 40.2 µM
TGI [56]: 26.4 µM
TGI [4]: 63.2 µM
TGI [5]: 27.7 µM
TGI [6]: 33.5 µM
TGI [7]: 30.6 µM
TGI [8]: 35.9 µM
TGI [9]: 30.1 µM
TGI [57]: 77.8 µM
TGI [10]: 36.9 µM
TGI [11]: 52.8 µM
TGI [12]: 27.9 µM
TGI [13]: 30.9 µM
TGI [14]: 29 µM
TGI [15]: 41.2 µM
TGI [16]: 32 µM
TGI [17]: 65.3 µM
TGI [58]: 49.6 µM
TGI [18]: 83.8 µM
TGI [59]: 36.9 µM
TGI [19]: 97.6 µM
TGI [20]: 32.1 µM
TGI [21]: 69.7 µM
TGI [23]: 31.9 µM
TGI [24]: 58.1 µM
TGI [25]: 75.8 µM
TGI [27]: 40.8 µM
TGI [28]: 46.8 µM
TGI [29]: 29.4 µM
TGI [30]: 28.6 µM
TGI [31]: 43.4 µM
TGI [32]: > 100 µM
TGI [33]: 31 µM
TGI [34]: 48.7 µM
TGI [37]: > 100 µM
TGI [38]: 42.8 µM
TGI [39]: 70 µM
TGI [40]: 30.3 µM
TGI [41]: 51.9 µM
TGI [42]: 31.9 µM
TGI [43]: 44.9 µM
TGI [44]: 54.9 µM
TGI [46]: 31.6 µM
TGI [47]: 50 µM
TGI [48]: 64.6 µM
TGI [49]: 31.2 µM
TGI [50]: > 100 µM
TGI [51]: 30.8 µM
TGI [52]: > 100 µM
TGI [53]: 42.7 µM
TGI [54]: 27.6 µM

CC(C)OC(=O)c1cc(NC(=O)C(C)(C)C)c(F)cc1Cl
TGI [1]: > 100 µM
TGI [2]: > 100 µM
TGI [3]: > 100 µM
TGI [56]: > 100 µM
TGI [4]: > 100 µM
TGI [5]: > 100 µM
TGI [6]: > 100 µM
TGI [7]: > 100 µM
TGI [8]: > 100 µM
TGI [9]: > 100 µM
TGI [57]: > 100 µM
TGI [10]: > 100 µM
TGI [11]: > 100 µM
TGI [12]: > 100 µM
TGI [13]: > 100 µM
TGI [14]: > 100 µM
TGI [15]: > 100 µM
TGI [16]: > 100 µM
TGI [17]: > 100 µM
TGI [18]: > 100 µM
TGI [59]: > 100 µM
TGI [19]: > 100 µM
TGI [20]: > 100 µM
TGI [21]: > 100 µM
TGI [22]: > 100 µM
TGI [23]: > 100 µM
TGI [24]: > 100 µM
TGI [25]: > 100 µM
TGI [26]: > 100 µM
TGI [27]: > 100 µM
TGI [28]: > 100 µM
TGI [29]: > 100 µM
TGI [30]: > 100 µM
TGI [31]: > 100 µM
TGI [32]: > 100 µM
TGI [33]: > 100 µM
TGI [34]: > 100 µM
TGI [35]: > 100 µM
TGI [36]: > 100 µM
TGI [38]: > 100 µM
TGI [39]: > 100 µM
TGI [40]: > 100 µM
TGI [41]: > 100 µM
TGI [42]: > 100 µM
TGI [43]: > 100 µM
TGI [44]: > 100 µM
TGI [45]: > 100 µM
TGI [46]: > 100 µM
TGI [47]: > 100 µM
TGI [48]: > 100 µM
TGI [49]: > 100 µM
TGI [50]: > 100 µM
TGI [51]: > 100 µM
TGI [52]: > 100 µM
TGI [53]: > 100 µM
TGI [54]: > 100 µM
